In the CheMixHub ionic liquid set:
Values joined by “and” are separate entries in the source; they are usually repeats but may differ in a detail not shown here. Equal entries are not always repeated.

Assay: xn = mol fraction of the nth substance listed
Settings: 298.15 K, 101 kPa, frequency 0.001 MHz

CCCCCCCCCCCCCCCC[N+](C)(C)C.[Br-] + CCCCCCCCCCCCOS(=O)(=O)[O-].[Na+] + O
Settings | electrical conductivity
x2 = 0, x1 = 3e-08 | 0.000332 S/m
x2 = 0, x1 = 1.09e-06 | 0.001 S/m
x2 = 0, x1 = 2.34e-06 | 0.00165 S/m
x2 = 0, x1 = 3.39e-06 | 0.00255 S/m
x2 = 0, x1 = 4.43e-06 | 0.00305 S/m
x2 = 0, x1 = 5.57e-06 | 0.00366 S/m
x2 = 0, x1 = 6.72e-06 | 0.00441 S/m
x2 = 0, x1 = 7.97e-06 | 0.00511 S/m
x2 = 0, x1 = 8.91e-06 | 0.00577 S/m
x2 = 0, x1 = 1.12e-05 | 0.00697 S/m
x2 = 0, x1 = 1.213e-05 | 0.00757 S/m
x2 = 0, x1 = 1.307e-05 | 0.00823 S/m
x2 = 0, x1 = 1.411e-05 | 0.00873 S/m
x2 = 0, x1 = 1.526e-05 | 0.00943 S/m
x2 = 0, x1 = 1.63e-05 | 0.00978 S/m
x2 = 0, x1 = 1.734e-05 | 0.0102 S/m
x2 = 0, x1 = 1.922e-05 | 0.0105 S/m
x2 = 0, x1 = 1.995e-05 | 0.0108 S/m
x2 = 0, x1 = 2.172e-05 | 0.0111 S/m
x2 = 0, x1 = 2.276e-05 | 0.0113 S/m
x2 = 0, x1 = 2.443e-05 | 0.0115 S/m
x2 = 0, x1 = 2.599e-05 | 0.0117 S/m
x2 = 0, x1 = 2.734e-05 | 0.012 S/m
x2 = 0, x1 = 2.859e-05 | 0.0122 S/m
x2 = 1e-08, x1 = 1e-08 | 0.000339 S/m and 0.000404 S/m
x2 = 1e-08, x1 = 3e-08 | 0.000436 S/m
x2 = 1e-08, x1 = 4e-08 | 0.000343 S/m
x2 = 1e-08, x1 = 1.2e-07 | 0.000394 S/m
x2 = 2e-08, x1 = 2e-08 | 0.000534 S/m
x2 = 2e-08, x1 = 3e-08 | 0.000686 S/m and 0.000765 S/m
x2 = 2e-08, x1 = 4e-08 | 0.000522 S/m and 0.000583 S/m and 0.000801 S/m
x2 = 2e-08, x1 = 5e-08 | 0.000647 S/m and 0.000697 S/m
x2 = 2e-08, x1 = 7e-08 | 0.000383 S/m
x2 = 2e-08, x1 = 8e-08 | 0.000422 S/m
x2 = 2e-08, x1 = 1.5e-07 | 0.000412 S/m
x2 = 2e-08, x1 = 1.9e-07 | 0.000438 S/m
x2 = 3e-08, x1 = 1e-08 | 0.000594 S/m
x2 = 3e-08, x1 = 4e-08 | 0.000836 S/m
x2 = 3e-08, x1 = 5e-08 | 0.000883 S/m
x2 = 3e-08, x1 = 6e-08 | 0.000733 S/m
x2 = 3e-08, x1 = 7e-08 | 0.000772 S/m
x2 = 3e-08, x1 = 1.1e-07 | 0.000459 S/m
x2 = 3e-08, x1 = 2.3e-07 | 0.000467 S/m
x2 = 3e-08, x1 = 3e-07 | 0.000493 S/m
x2 = 4e-08, x1 = 2e-08 | 0.000416 S/m and 0.00028 S/m
x2 = 4e-08, x1 = 6e-08 | 0.000919 S/m
x2 = 4e-08, x1 = 8e-08 | 0.000812 S/m
x2 = 4e-08, x1 = 1e-07 | 0.000848 S/m
x2 = 4e-08, x1 = 1.7e-07 | 0.000541 S/m
x2 = 4e-08, x1 = 3.6e-07 | 0.000522 S/m
x2 = 5e-08, x1 = 1e-08 | 0.000679 S/m
x2 = 5e-08, x1 = 7e-08 | 0.000941 S/m
x2 = 5e-08, x1 = 1.2e-07 | 0.000887 S/m
x2 = 5e-08, x1 = 4.3e-07 | 0.000555 S/m
x2 = 6e-08, x1 = 2e-08 | 0.000797 S/m
x2 = 6e-08, x1 = 6e-08 | 0.000747 S/m
x2 = 6e-08, x1 = 9e-08 | 0.000991 S/m
x2 = 6e-08, x1 = 2.4e-07 | 0.000642 S/m
x2 = 7e-08, x1 = 1.1e-07 | 0.00101 S/m
x2 = 7e-08, x1 = 1.5e-07 | 0.000924 S/m
x2 = 7e-08, x1 = 2.9e-07 | 0.000707 S/m
x2 = 8e-08, x1 = 1e-08 | 0.000628 S/m
x2 = 8e-08, x1 = 2e-08 | 0.000891 S/m
x2 = 8e-08, x1 = 3e-08 | 0.00034 S/m
x2 = 8e-08, x1 = 5e-08 | 0.00106 S/m
x2 = 8e-08, x1 = 1.9e-07 | 0.00096 S/m
x2 = 8e-08, x1 = 3.2e-07 | 0.000765 S/m
x2 = 9e-08, x1 = 6e-08 | 0.00125 S/m
x2 = 9e-08, x1 = 1.3e-07 | 0.00105 S/m
x2 = 9e-08, x1 = 3.7e-07 | 0.000826 S/m
x2 = 1e-07, x1 = 6e-08 | 0.00139 S/m
x2 = 1e-07, x1 = 1.5e-07 | 0.00109 S/m
x2 = 1.1e-07, x1 = 7e-08 | 0.00148 S/m
x2 = 1.1e-07, x1 = 1.1e-07 | 0.001 S/m
x2 = 1.2e-07, x1 = 3e-08 | 0.00103 S/m
x2 = 1.2e-07, x1 = 5e-08 | 0.000383 S/m
x2 = 1.2e-07, x1 = 8e-08 | 0.00152 S/m
x2 = 1.2e-07, x1 = 1.7e-07 | 0.00113 S/m
x2 = 1.4e-07, x1 = 1.4e-07 | 0.00108 S/m
x2 = 1.4e-07, x1 = 2.1e-07 | 0.00116 S/m
x2 = 1.5e-07, x1 = 4e-08 | 0.00112 S/m
x2 = 1.5e-07, x1 = 6e-08 | 0.000443 S/m
x2 = 1.5e-07, x1 = 1e-07 | 0.00161 S/m
x2 = 1.6e-07, x1 = 2e-08 | 0.000934 S/m
x2 = 1.6e-07, x1 = 7e-08 | 0.000477 S/m
x2 = 1.7e-07, x1 = 1.1e-07 | 0.00167 S/m
x2 = 1.8e-07, x1 = 1.8e-07 | 0.00116 S/m
x2 = 1.8e-07, x1 = 2.7e-07 | 0.0012 S/m
x2 = 1.9e-07, x1 = 2e-08 | 0.00106 S/m
x2 = 2e-07, x1 = 9e-08 | 0.000571 S/m
x2 = 2e-07, x1 = 1.3e-07 | 0.00173 S/m
x2 = 2.2e-07, x1 = 5e-08 | 0.00121 S/m
x2 = 2.2e-07, x1 = 2.2e-07 | 0.00125 S/m
x2 = 2.3e-07, x1 = 3e-08 | 0.00115 S/m
x2 = 2.6e-07, x1 = 1.7e-07 | 0.00178 S/m
x2 = 2.6e-07, x1 = 2.6e-07 | 0.00135 S/m
x2 = 2.8e-07, x1 = 3e-08 | 0.00131 S/m
x2 = 3e-07, x1 = 7e-08 | 0.00125 S/m
x2 = 3e-07, x1 = 1.3e-07 | 0.000632 S/m
x2 = 3e-07, x1 = 2e-07 | 0.00186 S/m
x2 = 3e-07, x1 = 3e-07 | 0.00143 S/m
x2 = 3.1e-07, x1 = 3e-08 | 0.00138 S/m
x2 = 3.4e-07, x1 = 4e-08 | 0.00144 S/m
x2 = 3.4e-07, x1 = 3.4e-07 | 0.00147 S/m
x2 = 3.6e-07, x1 = 4e-08 | 0.00156 S/m
x2 = 3.7e-07, x1 = 2.4e-07 | 0.00196 S/m
x2 = 4e-07, x1 = 4e-08 | 0.00168 S/m
x2 = 4.1e-07, x1 = 1e-07 | 0.0013 S/m
x2 = 4.1e-07, x1 = 1.8e-07 | 0.000659 S/m
x2 = 4.1e-07, x1 = 2.7e-07 | 0.00203 S/m
x2 = 4.6e-07, x1 = 3.1e-07 | 0.00208 S/m
x2 = 4.7e-07, x1 = 5e-08 | 0.00179 S/m
x2 = 5.1e-07, x1 = 2.2e-07 | 0.000678 S/m
x2 = 5.1e-07, x1 = 3.4e-07 | 0.0022 S/m
x2 = 5.4e-07, x1 = 6e-08 | 0.0019 S/m
x2 = 5.6e-07, x1 = 3.7e-07 | 0.00228 S/m
x2 = 5.8e-07, x1 = 1.5e-07 | 0.00133 S/m
x2 = 6.1e-07, x1 = 7e-08 | 0.00201 S/m
x2 = 6.6e-07, x1 = 2.8e-07 | 0.000706 S/m
x2 = 6.7e-07, x1 = 7e-08 | 0.00214 S/m
x2 = 7.9e-07, x1 = 3.4e-07 | 0.000733 S/m
x2 = 8.2e-07, x1 = 2e-07 | 0.00138 S/m
x2 = 9e-07, x1 = 3.9e-07 | 0.000778 S/m
x2 = 1.05e-06, x1 = 2.6e-07 | 0.00143 S/m
